Test results published in patent US5028726A, “Platinum amine sulfoxide complexes” (The University of Vermont and State Agricultural College, priority 1990, dated 1991).

Columns and labels:
[1] = test system: L1210/DDP cells; assay: In vitro cytotoxicity, DDP-resistant L1210/DDP cells; assay type: cell-based, murine; conditions: for Resistance Factor (R), L1210/DDP: ID50 (L1210/DDP) divided by ID50 (L1210/0), 4320 min; for IC50: L1210/DDP, 40-60 fold resistant to DDP, 72 hours, read-out: In Vitro Activity in L1210 Leukemia, L1210/DDP (ID50)
Method: (§1) L1210 murine leukemia cells sensitive to the cytotoxicity of DDP (L1210/0) were cultured as a suspension in McCoy's 5A medium supplemented with 5% donor horse serum and glutamine. L1210 cells, 40-60 fold resistant to DDP (L1210/DDP) or 30-fold resistant to [Pt(R,R-dach)SO4 ] (L1210/dach), were cultured in McCoy's 5A medium supplemented with 10% fetal bovine serum and glutamine. Both cell lines were grown in a humidified atmosphere to 5% CO2 : 95% air at 37° C. For testing purposes, cells were diluted to 5×10^4 cells/ml and 1 ml of cell suspension aliquoted to disposable tissue culture tubes. Test compound was then added to the appropriate tubes (40 μl/tube) to attain final concentrations of 0.01, 0.1, 1.0 and 10 μg/ml. After 72 hours, the cell concentrations of all tubes were determined using a Coulter counter. The percent growth inhibition for each drug concentration was then calculated and the ID 50 (concentration of drug required to inhibit cell growth by 50%) was derived. The resistance factor for each compound was obtained by dividing the ID50 (L1210/DDP) by the ID50 (L1210/0).
(§2) In Vitro Activity (μM) of [PtCl(R2 SO)(damch)]NO3 in L1210
(§3) ^a R = Resistance Factor which is defined as ID50 (Sensitive or […]

[2] = test system: L1210/0 murine leukemia cells; assay: In vitro cytotoxicity, DDP-sensitive L1210/0 cells; assay type: cell-based; conditions: L1210/0, DDP-sensitive; 72 hours; read-out: In Vitro Activity in L1210 Leukemia, L1210/O (ID50)
Method: as §1, §2

[3] = test system: B16 melanoma; assay: In vivo efficacy, B16 melanoma, compared to cisplatin; parameters: species or system mice; conditions: tumor s.c., drug i.p.
[4] = test system: L1210/dach cells; assay: In vitro cytotoxicity, [Pt(R,R-dach)SO4]-resistant L1210/dach cells; assay type: cell-based, murine
Method: as §1, §2, §3

[5] = test system: L1210 leukemia; assay: In vivo efficacy, L1210 leukemia in mice; parameters: species or system murine (male BDR mice); conditions: days 1, 5 and 9
Method: (§4) Male BDR mice weighing 18-20 gm were purchased from the National Cancer Institute and housed in an environment having controlled humidity, temperature and photoperiods. The animals had food and water available ad libitum and wood chip bedding was changed daily. The L1210/0 and P388 murine leukemias were maintained as ascites tumors by weekly intraperitoneal (i.p.) inoculations of 10^6 cells For testing purposes, 10^6 tumor cells were inoculated i.p. (day 0) and mice were administered test compound i.p. on days 1, 5 and 9. Animals were observed daily for signs of toxicity and deaths and the day of death recorded for each animal that died during the 60 day observation period. The efficacy of each dose of compound tested was evaluated by calculating the percent increased life span determined by dividing the mean survival time of treated mice (using the day of death of only those animals that dies during the 60 day period) by the mean survival time of non-treated tumor bearing control animals (% T/C). […] An additional index of antitumor activity is the number of long term survivors defined as treated animals alive at the end of the study. The complexes tested and the results observed are summarized in Table 3 (L1210 leukemia) and in Table 4 (P338 leukemia). The data in Table 5 compares to the in vivo activity of [PtCl(n-Bu2 SO)](damch)NO3 with that of cisplatin.

[6] = test system: P388 leukemia; assay: In vivo efficacy, P388 leukemia in mice; parameters: species or system murine (male BDR mice); conditions: days 1, 5 and 9
Method: as §4

[7] = clinical, compared with parent complex cisplatin; cited from earlier work
[8] = dose 3 × 12.5, complex in saline

[PtCl(damch)(n-Bu2 SO)]^+ NO3 ^-
Resistance Factor (R), L1210/DDP [1]: 6.05
IC50 [1]: 2360 nM
IC50 [2]: 390 nM
% T/C, B16 melanoma ([3]; dose 3 × 6.25, complex in saline): 154%
% T/C, B16 melanoma [3, 8]: 136%
figure in parentheses after % T/C (presumably long term survivors), B16 melanoma [3, 8]: 1/6
% T/C, B16 melanoma ([3]; dose 3 × 25, complex in saline): 188%
IC50 ([4]; L1210/dach, 30-fold resistant to [Pt(R,R-dach)SO4], 72 hours, read-out: In Vitro Activity in L1210 Leukemia, L1210/dach (ID50)): 5360 nM
Resistance Factor (R), L1210/dach ([4]; resistance factor for L1210/dach versus L1210/0, 4320 min): 41.23
% T/C, L1210 leukemia ([5]; 3 × 25 mg/kg (D5W) i.p.): 260%
% T/C, P388 leukemia ([6]; dose 3 × 6.25, i.p.): 167%
% T/C, P388 leukemia ([6]; dose 3 × 12.5, i.p.): 146%
% T/C, P388 leukemia ([6]; dose 3 × 25 (D5W), i.p.): 195%
% T/C, P388 leukemia ([6]; dose 3 × 25, i.p.): 189%

[PtCl(R2 SO)(damch)]NO3, R = n-Pr
Resistance Factor (R), L1210/DDP [1]: 4.70
IC50 [1]: 2920 nM
IC50 [2]: 620 nM
% T/C, L1210 leukemia ([5]; 3 × 12.5 mg/kg i.p.): 162%
% T/C, L1210 leukemia ([5]; 3 × 25 mg/kg i.p.): 185%

[PtCl(R2 SO)(damch)]NO3, R = Me [reference compound]
Resistance Factor (R), L1210/DDP [1]: 3.58
IC50 [1]: 3900 nM
IC50 [2]: 1090 nM
% T/C, L1210 leukemia ([5]; 3 × 100 mg/kg i.p.): 152%

N.N.[Cl][Pt][Cl] [Cisplatin, cis-[PtCl2 (NH3)2], reference compound]
% T/C, B16 melanoma ([3]; dose 3 × 5): 170%

N.N.O=C([O-])C1(C(=O)[O-])CCC1.[Pt+2] [carboplatin, [Pt(NH3)2 (CBDCA)]]
nephrotoxicity [7]: reduction in the severe nephrotoxicity of the parent complex
